Measurements taken from patent publication US20240060999A1, “BLOOD COAGULATION INSPECTION METHOD” (FUJIMORI KOGYO CO., LTD, priority 2020, published 2024).

System: whole blood
Experiment: ROTEM whole blood coagulation with dialyzed Dade Innovin (recombinant tissue factor) 0.569 μg/mL + Ca 12 mM + CTI 20 μg/mL + PKSI-527 40 μM
Type: cell-based
Details: Ex26; for CT (clotting time): Innovin 0.569 μg/mL+Ca+CTI+PKSI-527, heparan sulfate 2 μg/mL
Description: ROTEM was used to analyze blood coagulation.
Blood was collected using a blood collection tube containing 3.2% sodium citrate manufactured by Terumo Corporation.
Blood coagulation was analyzed in the case of having added 4% (final concentration 0.569 μg/mL) of Dade Innovin (recombinant tissue factor: Sysmex Corporation) having being diluted by 50 times after dialysis, calcium chloride (Ca; final concentration 12 mM), heparan sulfate (final concentration 0 or 2 μg/mL), CTI (final concentration 20 μg/mL), PKSI-527 (final concentration 40 μM) without and with a soluble thrombomodulin (rTM: final concentration 30 nM) further having been added, as well as with an APC inhibitory aptamer (HS02-44G; final concentration 1 μM) in addition to 30 nM of soluble thrombomodulin.
Blood coagulation was analyzed in the case of having added 4% (final concentration 0.569 μg/mL) of 50-fold diluted Dade Innovin (recombinant tissue factor: Sysmex Corporation) after dialysis, calcium chloride (Ca; final concentration 12 mM), low molecular weight heparan (trade name FRAGMIN; Pfizer) (final concentration 0 or 0.2 U/mL), CTI (final concentration 20 μg/mL), and PKSI-527 (final concentration 40 μM) with and without a soluble thrombomodulin (rTM; final concentration 30 nM) further having been added, as well as with an APC inhibitory aptamer (HS02-44G; final concentration 1 μM) in addition to 30 nM soluble thrombomodulin.
ROTEM was used to analyze coagulation.
Blood coagulation was analyzed in the case of having added 4% (final concentration 0.569 μg/mL) of 50-fold diluted Dade Innovin (recombinant tissue factor: Sysmex Corporation) after dialysis, calcium chloride (Ca; final concentration 12 mM), ARIXTRA (final concentration 0 or […]), CTI (final concentration 20 μg/mL), and PKSI-527 (final concentration 40 μM), without and with thrombomodulin (rTM; final concentration 30 nM) further having been added, as well as with an APC inhibitory aptamer (HS02-44G; final concentration 1 μM) in addition to soluble thrombomodulin 30 nM.

Q: What does the source list for Heparan sulfate?
A: CT (clotting time) (no rTM): 410 s; CT (clotting time) (rTM 30 nM): 904 s; CT (clotting time) (rTM 30 nM+APC inhibitory aptamer 1 μM): 643 s; anticoagulation ability of the soluble thrombomodulin (addition of heparan sulfate 2 μg/mL, rTM 30 nM): markedly enhanced
